From ChEMBL document CHEMBL1154644 (J Med Chem, 2009)
pIC50: −log10 of the molar value. Blank lines part the entries; values can stand above or below the molecule they belong to. The source made the active and inactive calls. No cut-off for these calls is given here.

Assays:
[1] = molecular target: T1, Serine/threonine-protein kinase mTOR (Homo sapiens, UniProt P42345); assay: Inhibition of human mTOR by DELFIA assay; type: single protein
[2] = Selectivity for human mTOR over PI3Kalpha
[3] = molecular target: Phosphatidylinositol 4,5-bisphosphate 3-kinase catalytic subunit alpha isoform (Homo sapiens, UniProt P42336); assay: Inhibition of PI3Kalpha by fluorescence polarization assay
Sequence of Phosphatidylinositol 4,5-bisphosphate 3-kinase catalytic subunit alpha isoform (P42336 whole entry, canonical isoform): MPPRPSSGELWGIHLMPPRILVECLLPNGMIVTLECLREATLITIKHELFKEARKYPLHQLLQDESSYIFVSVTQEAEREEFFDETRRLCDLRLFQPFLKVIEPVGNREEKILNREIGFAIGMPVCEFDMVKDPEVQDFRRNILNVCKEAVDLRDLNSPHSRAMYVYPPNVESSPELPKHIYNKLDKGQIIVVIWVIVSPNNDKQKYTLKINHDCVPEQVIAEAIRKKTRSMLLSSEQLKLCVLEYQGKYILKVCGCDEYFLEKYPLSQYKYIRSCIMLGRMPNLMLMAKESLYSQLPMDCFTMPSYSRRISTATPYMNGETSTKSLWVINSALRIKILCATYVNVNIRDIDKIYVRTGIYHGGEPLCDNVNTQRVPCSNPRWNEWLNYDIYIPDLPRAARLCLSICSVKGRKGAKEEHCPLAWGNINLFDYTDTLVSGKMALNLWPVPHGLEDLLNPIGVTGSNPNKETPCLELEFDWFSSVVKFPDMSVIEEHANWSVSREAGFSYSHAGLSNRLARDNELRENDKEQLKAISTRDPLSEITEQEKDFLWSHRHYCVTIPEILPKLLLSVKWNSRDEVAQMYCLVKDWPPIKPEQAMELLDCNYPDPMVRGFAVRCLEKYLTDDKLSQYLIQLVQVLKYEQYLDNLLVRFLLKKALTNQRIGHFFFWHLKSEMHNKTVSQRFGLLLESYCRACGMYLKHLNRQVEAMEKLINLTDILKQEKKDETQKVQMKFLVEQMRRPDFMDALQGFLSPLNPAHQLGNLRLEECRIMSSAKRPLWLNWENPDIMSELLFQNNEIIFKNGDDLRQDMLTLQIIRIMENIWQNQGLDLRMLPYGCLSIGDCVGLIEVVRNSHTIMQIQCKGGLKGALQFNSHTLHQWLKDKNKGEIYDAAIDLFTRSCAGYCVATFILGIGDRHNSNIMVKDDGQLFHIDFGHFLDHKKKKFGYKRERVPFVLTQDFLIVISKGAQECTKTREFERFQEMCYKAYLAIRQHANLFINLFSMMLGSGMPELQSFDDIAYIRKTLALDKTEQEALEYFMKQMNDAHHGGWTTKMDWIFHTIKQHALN

[4] = molecular target: T1, Serine/threonine-protein kinase mTOR; assay: Inhibition of mTOR-mediated signaling in PTEN-negative, PI3K/AKT-hyperactive human U87MG cells assessed as inhibition of phosphorylation of S6K1(T389) measured after 6 hrs by immunoblotting; type: cell-based; conditions: U-87MG ATCC
[5] = molecular target: Dual specificity protein kinase CLK1 (Homo sapiens) (UniProt P49759); assay: Inhibition of CLK1 at 2 uM
[6] = molecular target: T1, Serine/threonine-protein kinase mTOR; assay: Inhibition of mTOR-mediated signaling in human A498 cells assessed as inhibition of phosphorylation of 4EBP1 (T37/46) measured after 6 hrs by immunoblotting; type: cell-based
[7] = Inhibition of AMPK at 2 uM
[8] = molecular target: Serine/threonine-protein kinase 26 (Homo sapiens) (UniProt Q9P289); assay: Inhibition of MST4 at 2 uM
[9] = molecular target: Serine/threonine-protein kinase PAK 2 (Homo sapiens) (UniProt Q13177); assay: Inhibition of PAK2 at 2 uM
Sequence of Serine/threonine-protein kinase PAK 2 (Homo sapiens) (Q13177 whole entry): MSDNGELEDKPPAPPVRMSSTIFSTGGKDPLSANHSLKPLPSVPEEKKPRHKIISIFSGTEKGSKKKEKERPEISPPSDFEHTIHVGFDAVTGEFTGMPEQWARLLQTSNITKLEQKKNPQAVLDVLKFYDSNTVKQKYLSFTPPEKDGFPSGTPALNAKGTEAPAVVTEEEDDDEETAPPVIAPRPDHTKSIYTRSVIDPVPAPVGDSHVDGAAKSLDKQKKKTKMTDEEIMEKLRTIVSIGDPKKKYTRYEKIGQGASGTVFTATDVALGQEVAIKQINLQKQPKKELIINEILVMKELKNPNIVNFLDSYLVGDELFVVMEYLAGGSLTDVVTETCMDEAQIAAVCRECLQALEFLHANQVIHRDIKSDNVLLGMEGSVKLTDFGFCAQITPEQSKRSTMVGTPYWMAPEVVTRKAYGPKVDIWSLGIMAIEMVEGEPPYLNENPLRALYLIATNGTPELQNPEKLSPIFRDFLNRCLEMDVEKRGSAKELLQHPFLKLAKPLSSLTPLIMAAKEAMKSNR

[10] = molecular target: T1, Serine/threonine-protein kinase mTOR; assay: Inhibition of mTOR-mediated signaling in human A498 cells assessed as inhibition of mTORC2 biomarker measured after 6 hrs by immunoblotting; type: cell-based
[11] = molecular target: T1, Serine/threonine-protein kinase mTOR; assay: Inhibition of mTOR-mediated signaling in human A498 cells assessed as inhibition of phosphorylation of S6K1(T389) measured after 6 hrs by immunoblotting; type: cell-based
[12] = molecular target: Fibroblast growth factor receptor 1 (Homo sapiens) (UniProt P11362); assay: Inhibition of FGFR1 at 2 uM
Sequence of Fibroblast growth factor receptor 1 (Homo sapiens) (P11362 22-822 limits assumed): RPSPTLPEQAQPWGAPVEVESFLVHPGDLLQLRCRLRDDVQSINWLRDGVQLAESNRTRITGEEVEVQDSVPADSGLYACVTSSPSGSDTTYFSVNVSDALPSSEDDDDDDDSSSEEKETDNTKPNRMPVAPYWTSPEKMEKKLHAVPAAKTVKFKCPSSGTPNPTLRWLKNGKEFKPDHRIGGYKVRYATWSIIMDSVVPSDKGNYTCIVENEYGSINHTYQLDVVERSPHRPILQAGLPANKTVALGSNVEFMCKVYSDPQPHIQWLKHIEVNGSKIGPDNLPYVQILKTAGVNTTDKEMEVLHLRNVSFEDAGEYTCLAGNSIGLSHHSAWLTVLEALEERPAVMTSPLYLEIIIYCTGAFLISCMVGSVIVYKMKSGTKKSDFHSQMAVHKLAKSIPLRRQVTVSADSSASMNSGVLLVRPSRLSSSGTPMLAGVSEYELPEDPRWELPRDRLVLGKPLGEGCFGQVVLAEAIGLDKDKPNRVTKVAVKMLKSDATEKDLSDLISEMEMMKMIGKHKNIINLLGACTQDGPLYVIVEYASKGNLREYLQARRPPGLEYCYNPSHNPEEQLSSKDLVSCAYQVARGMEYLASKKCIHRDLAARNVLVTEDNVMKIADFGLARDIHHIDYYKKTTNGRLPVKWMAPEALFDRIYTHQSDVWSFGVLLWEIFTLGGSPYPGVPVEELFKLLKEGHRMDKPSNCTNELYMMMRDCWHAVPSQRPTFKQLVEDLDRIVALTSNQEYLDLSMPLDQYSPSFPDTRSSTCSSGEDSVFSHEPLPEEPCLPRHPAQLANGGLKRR

[13] = molecular target: Serine/threonine-protein kinase D3 (PRKD3/PKCν) (Homo sapiens) (UniProt O94806); assay: Inhibition of PRKCN at 2 uM
Sequence of Serine/threonine-protein kinase D3 (PRKD3/PKCν) (Homo sapiens) (O94806 whole entry, looked up): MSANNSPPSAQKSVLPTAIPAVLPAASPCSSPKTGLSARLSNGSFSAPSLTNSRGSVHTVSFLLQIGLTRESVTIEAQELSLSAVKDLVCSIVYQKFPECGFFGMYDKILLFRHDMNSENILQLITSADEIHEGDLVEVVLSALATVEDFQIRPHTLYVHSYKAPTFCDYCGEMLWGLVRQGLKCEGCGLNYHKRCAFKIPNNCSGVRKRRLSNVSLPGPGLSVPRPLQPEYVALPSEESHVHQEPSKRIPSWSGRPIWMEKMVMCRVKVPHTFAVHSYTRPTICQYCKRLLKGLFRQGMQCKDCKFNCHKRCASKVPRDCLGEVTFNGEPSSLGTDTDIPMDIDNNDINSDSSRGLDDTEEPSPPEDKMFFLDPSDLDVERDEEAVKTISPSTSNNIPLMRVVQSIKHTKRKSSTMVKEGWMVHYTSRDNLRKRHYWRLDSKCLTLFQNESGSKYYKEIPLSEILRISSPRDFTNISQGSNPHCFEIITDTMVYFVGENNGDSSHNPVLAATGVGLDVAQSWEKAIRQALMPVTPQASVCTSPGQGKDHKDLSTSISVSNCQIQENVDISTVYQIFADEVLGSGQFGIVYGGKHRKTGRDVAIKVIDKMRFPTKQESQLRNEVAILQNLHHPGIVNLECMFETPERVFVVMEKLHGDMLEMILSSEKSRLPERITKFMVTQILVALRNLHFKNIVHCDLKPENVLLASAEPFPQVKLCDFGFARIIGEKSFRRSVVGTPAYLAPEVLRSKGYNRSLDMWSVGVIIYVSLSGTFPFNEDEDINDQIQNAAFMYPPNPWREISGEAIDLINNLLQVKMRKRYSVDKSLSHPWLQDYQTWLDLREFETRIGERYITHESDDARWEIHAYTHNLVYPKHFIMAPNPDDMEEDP

[14] = molecular target: Tyrosine-protein kinase JAK2 (Homo sapiens) (UniProt O60674); assay: Inhibition of JAK2 at 2 uM
Sequence of Tyrosine-protein kinase JAK2 (Homo sapiens) (O60674 whole entry): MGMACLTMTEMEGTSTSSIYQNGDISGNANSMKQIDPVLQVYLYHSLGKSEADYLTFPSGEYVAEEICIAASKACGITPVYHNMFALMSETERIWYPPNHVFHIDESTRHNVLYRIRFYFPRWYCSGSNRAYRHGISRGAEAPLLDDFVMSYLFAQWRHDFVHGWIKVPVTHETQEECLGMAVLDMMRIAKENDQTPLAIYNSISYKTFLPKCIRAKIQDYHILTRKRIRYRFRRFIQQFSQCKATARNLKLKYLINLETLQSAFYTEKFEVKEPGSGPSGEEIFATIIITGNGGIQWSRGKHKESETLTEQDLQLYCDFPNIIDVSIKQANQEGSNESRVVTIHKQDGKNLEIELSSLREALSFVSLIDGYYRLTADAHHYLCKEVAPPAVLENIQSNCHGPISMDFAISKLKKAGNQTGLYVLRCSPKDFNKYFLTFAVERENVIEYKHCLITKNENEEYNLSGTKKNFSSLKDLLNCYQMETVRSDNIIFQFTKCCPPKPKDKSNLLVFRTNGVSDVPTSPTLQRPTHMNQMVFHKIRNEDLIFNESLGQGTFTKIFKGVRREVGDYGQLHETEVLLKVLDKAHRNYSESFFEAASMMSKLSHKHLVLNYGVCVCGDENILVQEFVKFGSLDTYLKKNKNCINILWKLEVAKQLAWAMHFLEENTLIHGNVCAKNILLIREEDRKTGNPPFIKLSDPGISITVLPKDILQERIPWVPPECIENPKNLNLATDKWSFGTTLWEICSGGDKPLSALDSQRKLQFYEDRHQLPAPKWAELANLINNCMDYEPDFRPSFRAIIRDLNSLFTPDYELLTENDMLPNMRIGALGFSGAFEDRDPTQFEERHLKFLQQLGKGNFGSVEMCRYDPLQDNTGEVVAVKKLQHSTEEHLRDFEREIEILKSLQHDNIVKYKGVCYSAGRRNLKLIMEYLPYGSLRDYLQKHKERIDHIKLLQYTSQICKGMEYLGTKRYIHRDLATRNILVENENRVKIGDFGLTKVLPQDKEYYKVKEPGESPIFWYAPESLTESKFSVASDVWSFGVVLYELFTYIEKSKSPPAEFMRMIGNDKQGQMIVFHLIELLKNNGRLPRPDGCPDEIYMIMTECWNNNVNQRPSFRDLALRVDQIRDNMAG

[15] = molecular target: T1, Serine/threonine-protein kinase mTOR; assay: Inhibition of human mTOR assessed as ATP competitive inhibition by Lineweaver-Burke double reciprocal dose-response plot
[16] = molecular target: Serine/threonine-protein kinase PAK 5 (Homo sapiens) (UniProt Q9P286); assay: Inhibition of PAK7 at 2 uM
[17] = molecular target: T2, Serine/threonine-protein kinase Sgk3 (Homo sapiens) (UniProt Q96BR1); assay: Inhibition of SGKL at 2 uM
T2 sequence (whole entry): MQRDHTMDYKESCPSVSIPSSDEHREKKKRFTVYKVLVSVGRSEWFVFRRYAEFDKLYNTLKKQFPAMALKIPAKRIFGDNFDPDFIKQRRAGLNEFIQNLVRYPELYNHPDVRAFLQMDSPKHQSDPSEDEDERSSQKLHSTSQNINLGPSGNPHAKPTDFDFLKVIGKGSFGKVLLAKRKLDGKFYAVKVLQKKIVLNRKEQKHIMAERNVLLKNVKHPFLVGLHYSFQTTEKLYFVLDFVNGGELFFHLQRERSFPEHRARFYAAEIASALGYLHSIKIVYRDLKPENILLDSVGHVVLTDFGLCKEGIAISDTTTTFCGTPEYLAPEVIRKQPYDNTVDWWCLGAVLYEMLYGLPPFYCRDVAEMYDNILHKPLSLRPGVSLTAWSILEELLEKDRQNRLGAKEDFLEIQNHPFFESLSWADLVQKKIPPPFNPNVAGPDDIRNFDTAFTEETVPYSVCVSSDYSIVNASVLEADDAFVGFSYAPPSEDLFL

[18] = molecular target: BDNF/NT-3 growth factors receptor (Homo sapiens) (UniProt Q16620); assay: Inhibition of NTRK2 at 2 uM
[19] = molecular target: Angiopoietin-1 receptor (Homo sapiens) (UniProt Q02763); assay: Inhibition of TEK at 2 uM
[20] = molecular target: Tyrosine-protein kinase CSK (Homo sapiens) (UniProt P41240); assay: Inhibition of CSK at 2 uM
[21] = molecular target: T1, Serine/threonine-protein kinase mTOR; assay: Inhibition of mTOR-mediated signaling in PTEN-negative, PI3K/AKT-hyperactive human U87MG cells assessed as inhibition of phosphorylation of AKT(S473) measured after 6 hrs by immunoblotting; type: cell-based; conditions: U-87MG ATCC
[22] = molecular target: T1, Serine/threonine-protein kinase mTOR; assay: Inhibition of mTOR-mediated signaling in human A498 cells assessed as inhibition of phosphorylation of 4EBP1 (T70) measured after 6 hrs by immunoblotting; type: cell-based
[23] = molecular target: Serine/threonine-protein kinase 25 (Homo sapiens) (UniProt O00506); assay: Inhibition of STK25 at 2 uM
Sequence of Serine/threonine-protein kinase 25 (Homo sapiens) (O00506 whole entry, looked up): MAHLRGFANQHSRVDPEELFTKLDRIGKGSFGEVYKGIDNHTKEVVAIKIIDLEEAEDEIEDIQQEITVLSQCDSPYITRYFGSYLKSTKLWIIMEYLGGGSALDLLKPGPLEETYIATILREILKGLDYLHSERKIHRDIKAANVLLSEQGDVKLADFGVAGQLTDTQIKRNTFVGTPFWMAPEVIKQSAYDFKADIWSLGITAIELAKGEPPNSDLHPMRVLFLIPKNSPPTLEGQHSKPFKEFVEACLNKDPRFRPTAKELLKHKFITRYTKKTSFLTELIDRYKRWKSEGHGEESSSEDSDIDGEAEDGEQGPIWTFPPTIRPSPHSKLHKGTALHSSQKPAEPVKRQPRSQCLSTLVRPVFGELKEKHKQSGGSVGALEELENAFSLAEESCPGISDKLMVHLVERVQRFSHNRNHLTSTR

[24] = molecular target: T1, Serine/threonine-protein kinase mTOR; assay: Inhibition of mTOR-mediated signaling in human A498 cells assessed as inhibition of phosphorylation of AKT (S473) measured after 6 hrs by immunoblotting
[25] = molecular target: T1, Serine/threonine-protein kinase mTOR; assay: Inhibition of mTOR-mediated signaling in PTEN-negative, PI3K/AKT-hyperactive human U87MG cells assessed as inhibition of PI3K/PDK1 measured after 6 hrs by immunoblotting; type: cell-based; conditions: U-87MG ATCC
[26] = molecular target: T1, Serine/threonine-protein kinase mTOR; assay: Inhibition of mTOR-mediated signaling in PTEN-negative, PI3K/AKT-hyperactive human U87MG cells assessed as inhibition of phosphorylation of AKT(T308) measured after 6 hrs by immunoblotting; type: cell-based; conditions: U-87MG ATCC
[27] = Clearance in rat hepatocyte assessed as half life; type: ADME, cell-based, Liver; conditions: hepatocytes

SMILES: c1ccc(CN2CCC(n3ncc4c(N5CCOCC5)nc(-c5ccc6cc[nH]c6c5)nc43)CC2)cc1
pIC50 [1]: 6.64

SMILES: Oc1cccc(-c2nc(N3CCOCC3)c3cnn(C4CCNCC4)c3n2)c1
pIC50 [1]: 6.67

SMILES: c1cc2cc(-c3nc(N4CCOCC4)c4cnn(C5CCNCC5)c4n3)ccc2[nH]1
pIC50 [1]: 6.77

SMILES: c1ccc(CN2CCC(n3ncc4c(N5CCOCC5)nc(-c5cnc6ccccc6c5)nc43)CC2)cc1
pIC50 [1]: 6.92

SMILES: O=C(c1cccnc1)N1CCC(n2ncc3c(N4CCOCC4)nc(-c4ccc5[nH]ccc5c4)nc32)CC1
pIC50 [1]: 8.40 | pIC50 [3]: 5.23

SMILES: O=c1[nH]c2ccc(-c3nc(N4CCOCC4)c4cnn(C5CCN(Cc6ccccc6)CC5)c4n3)cc2[nH]1
pIC50 [1]: 6.72 | fold change (FC) [2]: > 20

SMILES: c1ccc(CN2CCC(n3ncc4c(N5CCOCC5)nc(-c5ccc6[nH]ccc6c5)nc43)CC2)cc1
pIC50 [1]: 7.06

SMILES: CO[C@H]1C[C@@H]2CC[C@@H](C)[C@@](O)(O2)C(=O)C(=O)N2CCCC[C@H]2C(=O)O[C@H]([C@H](C)C[C@@H]2CC[C@@H](O)[C@H](OC)C2)CC(=O)[C@H](C)/C=C(\C)[C@@H](O)[C@@H](OC)C(=O)[C@H](C)C[C@H](C)/C=C/C=C/C=C/1C
Activity [6]: inactive | Activity [11]: Active | Activity [22]: Active | Activity [24]: inactive

SMILES: c1ccc(CN2CCC(n3ncc4c(N5CCOCC5)nc(-c5cc6ccccc6[nH]5)nc43)CC2)cc1
pIC50 [1]: 6.89

SMILES: Oc1ccccc1-c1nc(N2CCOCC2)c2cnn(C3CCN(Cc4ccccc4)CC3)c2n1
pIC50 [1]: 5.90

SMILES: O=C(c1ccccc1)N1CCC(n2ncc3c(N4CCOCC4)nc(-c4cccc(O)c4)nc32)CC1
pIC50 [1]: 8.40 | pIC50 [3]: 7.30

SMILES: c1ccc(CN2CCC(n3ncc4c(N5CCOCC5)nc(-c5cccc6cc[nH]c56)nc43)CC2)cc1
pIC50 [1]: 6.42

SMILES: CC(=O)N1CCC(n2ncc3c(N4CCOCC4)nc(-c4cccc(O)c4)nc32)CC1
pIC50 [1]: 7.31

SMILES: c1ccc(CN2CCC(n3ncc4c(N5CCOCC5)nc(-c5cccc6[nH]ccc56)nc43)CC2)cc1
pIC50 [1]: 6.84

SMILES: c1ccc(CN2CCC(n3ncc4c(N5CCOCC5)nc(-c5ccc6ncccc6c5)nc43)CC2)cc1
pIC50 [1]: 5.23

The remaining lines, values ahead:

pIC50 [1]: 6.77
SMILES: Oc1ccc(-c2nc(N3CCOCC3)c3cnn(C4CCN(Cc5ccccc5)CC4)c3n2)cc1

pIC50 [1]: 8.22 | fold change (FC) [2]: > 10 | pIC50 [3]: 7.07
SMILES: O=C(c1cccnc1)N1CCC(n2ncc3c(N4CCOCC4)nc(-c4cccc(O)c4)nc32)CC1

pIC50 [1]: 8.00
SMILES: Oc1cccc(-c2nc(N3CCOCC3)c3cnn(C4CCN(Cc5cccnc5)CC4)c3n2)c1

Activity [4]: Active | inhibition [5]: 50% | Activity [6]: Dose-dependent effect | inhibition [7]: 50% | inhibition [8]: 50% | inhibition [9]: 50% | Activity [10]: Dose-dependent effect | pIC50 [1]: 8.05 | Activity [11]: Dose-dependent effect | inhibition [12]: 50% | inhibition [13]: 50% | inhibition [14]: 50% | Activity [15]: Active | inhibition [16]: 50% | inhibition [17]: 50% | inhibition [18]: 50% | inhibition [19]: 50% | inhibition [20]: 50% | Activity [21]: Active | Activity [22]: Dose-dependent effect | inhibition [23]: 50% | Activity [24]: Dose-dependent effect | Activity [25]: inactive | Activity [26]: inactive
SMILES: c1cncc(CN2CCC(n3ncc4c(N5CCOCC5)nc(-c5ccc6[nH]ccc6c5)nc43)CC2)c1

pIC50 [1]: 6.16
SMILES: c1ccc(CN2CCC(n3ncc4c(N5CCOCC5)nc(-c5cccnc5)nc43)CC2)cc1

pIC50 [1]: 7.11 | fold change (FC) [2]: > 10 | half-life [27]: 13 min
SMILES: Oc1cccc(-c2nc(N3CCOCC3)c3cnn(C4CCN(Cc5ccccc5)CC4)c3n2)c1

pIC50 [1]: 5.14
SMILES: c1ccc(CN2CCC(n3ncc4c(N5CCOCC5)nc(-c5ccncc5)nc43)CC2)cc1
